Measured values reported in patent publication US20230340011A1 (Asteroid Therapeutics, priority 2022, published 2023).
Blank lines part the entries; values can stand above or below the compound they belong to.

How the values were obtained:
SREBP-2 = SREBP-2 (Homo sapiens (Human), UniProt Q12772); experiment: In vitro assay SREBP-2: PathHunter U2OS SREBP-2 Nuclear Translocation Cell Line, U18666A-stimulated; type: cell-based; details: PathHunter U2OS SREBP-2 nuclear translocation cells, U18666A 10 μM, overnight (16 hours)
LXRβ = LXRβ (Homo sapiens (Human), UniProt P55055); experiment: In vitro assay LXRβ: PathHunter NHR CHO cells, LXRβ / Steroid Receptor Co-activator Peptide enzyme fragment complementation; type: cell-based; details: PathHunter NHR CHO cells, full-length human LXRβ and SRCP, chemiluminescent signal; read-out: LXRβ PPI
In short: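 Co-activator recruitment measured by chemiluminescence after signal generation. The CHO line carries full-length human LXRβ tagged with ProLink and an SRCP–enzyme acceptor fusion in the nucleus; cells sat overnight at 37° C before testing, in charcoal-dextran filtered serum medium with 1% final vehicle.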

LXRβ, sequence (P55055 whole entry, the tested form may be a part): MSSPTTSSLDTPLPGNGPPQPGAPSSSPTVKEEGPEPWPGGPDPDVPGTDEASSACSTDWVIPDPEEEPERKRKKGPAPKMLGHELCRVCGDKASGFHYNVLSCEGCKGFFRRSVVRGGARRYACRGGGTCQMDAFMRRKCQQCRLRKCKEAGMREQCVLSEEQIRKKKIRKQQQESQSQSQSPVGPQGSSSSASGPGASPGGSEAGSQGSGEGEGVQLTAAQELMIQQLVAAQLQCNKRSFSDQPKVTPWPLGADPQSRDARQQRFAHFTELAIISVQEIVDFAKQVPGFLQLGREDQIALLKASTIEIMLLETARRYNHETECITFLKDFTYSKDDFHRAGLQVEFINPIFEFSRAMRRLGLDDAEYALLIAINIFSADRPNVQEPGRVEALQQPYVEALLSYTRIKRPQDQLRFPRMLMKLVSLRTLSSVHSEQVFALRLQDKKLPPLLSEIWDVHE

Compound: C[C@H](CCc1cccnc1)[C@H]1CC[C@H]2[C@@H]3CC=C4C[C@@H](O)CC[C@]4(C)[C@H]3CC[C@]12C [Example 159, (3S,8S,9S,10R,13R,14S,17R)-10,13-dimethyl-17-((R)-4-(pyridin-3-yl)butan-2-yl)-2,3,4,7,8,9,10,11,12,13,14,15,16,17-tetradecahydro-1H-cyclopenta[a]phenanthren-3-ol]
- IC50 (SREBP-2): < 0.25 µM
- EC50 (LXRβ): > 10 µM

Compound: C[C@H](CCC(=O)N1CCN(C(=O)c2ccncc2)[C@@H](C)C1)[C@H]1CC[C@H]2[C@@H]3CC=C4C[C@@H](O)CC[C@]4(C)[C@H]3CC[C@]12C [Example 577, (R)-4-((3S,8S,9S,10R,13R,14S,17R)-3-hydroxy-10,13-dimethyl-2,3,4,7,8,9,10,11,12,13,14,15,16,17-tetradecahydro-1H-cyclopenta[a]phenanthren-17-yl)-1-((S)-4-isonicotinoyl-3-methylpiperazin-1-yl)pentan-1-one]
- IC50 (SREBP-2): < 0.25 µM
- EC50 (LXRβ): > 10 µM

Compound: COc1cncc(N2CCN(C(=O)CC[C@@H](C)[C@H]3CC[C@H]4[C@@H]5CC=C6C[C@@H](O)CC[C@]6(C)[C@H]5CC[C@]34C)CC2)c1 [Example 660, (R)-4-((3S,8S,9S,10R,13R,14S,17R)-3-hydroxy-10,13-dimethyl-2,3,4,7,8,9,10,11,12,13,14,15,16,17-tetradecahydro-1H-cyclopenta[a]phenanthren-17-yl)-1-(4-(5-methoxypyridin-3-yl)piperazin-1-yl)pentan-1-one]
- IC50 (SREBP-2): < 0.25 µM
- EC50 (LXRβ): > 10 µM

Compound: COc1cncnc1N1CCN(C(=O)CC[C@@H](C)[C@H]2CC[C@H]3[C@@H]4CC=C5C[C@@H](O)CC[C@]5(C)[C@H]4CC[C@]23C)CC1 [Example 204, (4R)-4-[(1R,3aS,3bS,7S,9aR,9bS,11aR)-7-hydroxy-9a,11a-dimethyl-1H,2H,3H,3aH,3bH,4H,6H,7H,8H,9H,9aH,9bH,10H,11H,11aH-cyclopenta[a]phenanthren-1-yl]-1-[4-(5-methoxypyrimidin-4-yl)piperazin-1-yl]pentan-1-one]
- IC50 (SREBP-2): < 0.25 µM
- EC50 (LXRβ): > 10 µM

Compound: COC(=O)N1CCC2(CCN(C(=O)CC[C@@H](C)[C@H]3CC[C@H]4[C@@H]5CC=C6C[C@@H](O)CC[C@]6(C)[C@H]5CC[C@]34C)C2)C1 (stereo partly drawn) [Example 554, Methyl 7-((R)-4-((3S,8S,9S,10R,13R,14S,17R)-3-hydroxy-10,13-dimethyl-2,3,4,7,8,9,10,11,12,13,14,15,16,17-tetradecahydro-1H-cyclopenta[a]phenanthren-17-yl)pentanoyl)-2,7-diazaspiro[4.4]nonane-2-carboxylate]
- IC50 (SREBP-2): < 0.25 µM
- EC50 (LXRβ): > 10 µM

Compound: C[C@H](CCC(=O)N1CCN(c2ccncn2)[C@@H](C)C1)[C@H]1CC[C@H]2[C@@H]3CC=C4C[C@@H](O)CC[C@]4(C)[C@H]3CC[C@]12C [Example 575, (4R)-4-[(1R,3aS,3bS,7S,9aR,9bS,11aR)-7-hydroxy-9a,11a-dimethyl-1H,2H,3H,3aH,3bH,4H,6H,7H,8H,9H,9aH,9bH,10H,11H,11aH-cyclopenta[a]phenanthren-1-yl]-1-[(3S)-3-methyl-4-(pyrimidin-4-yl)piperazin-1-yl]pentan-1-one]
- IC50 (SREBP-2): < 0.25 µM
- EC50 (LXRβ): > 10 µM

Compound: C[C@H](CCC(=O)N1CCC(S(=O)(=O)N(C)C)CC1)[C@H]1CC[C@H]2[C@@H]3CC=C4C[C@@H](O)CC[C@]4(C)[C@H]3CC[C@]12C [Example 290, 1-((R)-4-((3S,8S,9S,10R,13R,14S,17R)-3-hydroxy-10,13-dimethyl-2,3,4,7,8,9,10,11,12,13,14,15,16,17-tetradecahydro-1H-cyclopenta[a]phenanthren-17-yl)pentanoyl)-N,N-dimethylpiperidine-4-sulfonamide]
- IC50 (SREBP-2): < 0.25 µM
- EC50 (LXRβ): > 10 µM

Compound: CC1CCN(C(=O)CC[C@@H](C)[C@H]2CC[C@H]3[C@@H]4C[C@@H](O)[C@H]5C[C@@H](O)CC[C@]5(C)[C@H]4CC[C@]23C)CC1 [Example C2, (R)-4-((3S,5S,6R,8S,9S,10R,13R,14S,17R)-3,6-dihydroxy-10,13-dimethylhexadecahydro-1H-cyclopenta[a]phenanthren-17-yl)-1-(4-methylpiperidin-1-yl)pentan-1-one]
- IC50 (SREBP-2): > 10 µM
- EC50 (LXRβ): > 10 µM

Compound: C[C@H](CCC(=O)N1CCN(C(=O)c2ncnn2C)CC1)[C@H]1CC[C@H]2[C@@H]3CC=C4C[C@@H](O)CC[C@]4(C)[C@H]3CC[C@]12C [Example 382, (R)-4-((3S,8S,9S,10R,13R,14S,17R)-3-hydroxy-10,13-dimethyl-2,3,4,7,8,9,10,11,12,13,14,15,16,17-tetradecahydro-1H-cyclopenta[a]phenanthren-17-yl)-1-(4-(1-methyl-1H-1,2,4-triazole-5-carbonyl)piperazin-1-yl)pentan-1-one]
- IC50 (SREBP-2): < 0.25 µM
- EC50 (LXRβ): > 10 µM

Compound: C[C@H](CCC(=O)N1CCC(C)(CNC(=O)C(C)(C)O)CC1)[C@H]1CC[C@H]2[C@@H]3CC=C4C[C@@H](O)CC[C@]4(C)[C@H]3CC[C@]12C [Example 365, 2-hydroxy-N-((1-((R)-4-((3S,8S,9S,10R,13R,14S,17R)-3-hydroxy-10,13-dimethyl-2,3,4,7,8,9,10,11,12,13,14,15,16,17-tetradecahydro-1H-cyclopenta[a]phenanthren-17-yl)pentanoyl)-4-methylpiperidin-4-yl)methyl)-2-methylpropanamide]
- IC50 (SREBP-2): < 0.25 µM
- EC50 (LXRβ): > 10 µM

Compound: C[C@H](CCC(=O)N1CCN(c2ccn(C3CC3)c2)CC1)[C@H]1CC[C@H]2[C@@H]3CC=C4C[C@@H](O)CC[C@]4(C)[C@H]3CC[C@]12C [Example 516, (R)-1-(4-(1-cyclopropyl-1H-pyrrol-3-yl)piperazin-1-yl)-4-((3S,8S,9S,10R,13R,14S,17R)-3-hydroxy-10,13-dimethyl-2,3,4,7,8,9,10,11,12,13,14,15,16,17-tetradecahydro-1H-cyclopenta[a]phenanthren-17-yl)pentan-1-one]
- IC50 (SREBP-2): < 0.25 µM
- EC50 (LXRβ): > 10 µM

Compound: C=CCN1C[C@H]2CON(C(=O)CC[C@@H](C)[C@H]3CC[C@H]4[C@@H]5CC=C6C[C@@H](O)CC[C@]6(C)[C@H]5CC[C@]34C)[C@H]2C1 [Example 44, (R)-1-((3aR,6aR)-5-allylhexahydro-1H-pyrrolo[3,4-c]isoxazol-1-yl)-4-((3S,8S,9S,10R,13R,14S,17R)-3-hydroxy-10,13-dimethyl-2,3,4,7,8,9,10,11,12,13,14,15,16,17-tetradecahydro-1H-cyclopenta[a]phenanthren-17-yl)pentan-1-one]
- IC50 (SREBP-2): 0.25 to 1 µM
- EC50 (LXRβ): > 10 µM

Compound: Cc1cc(N2CCN(C(=O)CC[C@@H](C)[C@H]3CC[C@H]4[C@@H]5CC=C6C[C@@H](O)CC[C@]6(C)[C@H]5CC[C@]34C)CC2)ncn1 [Example 206, (4R)-4-[(1R,3aS,3bS,7S,9aR,9bS,11aR)-7-hydroxy-9a,11a-dimethyl-1H,2H,3H,3aH,3bH,4H,6H,7H,8H,9H,9aH,9bH,10H,11H,11aH-cyclopenta[a]phenanthren-1-yl]-1-[4-(6-methylpyrimidin-4-yl)piperazin-1-yl]pentan-1-one]
- IC50 (SREBP-2): < 0.25 µM
- EC50 (LXRβ): > 10 µM

Compound: CC[C@]1(O)CC[C@@]2(C)C(=CC[C@H]3[C@@H]4CC[C@H]([C@H](C)CCC(=O)N5CCN(C(=O)OC)CC5)[C@@]4(C)CC[C@@H]32)C1 [Example 420, Methyl 4-[(4R)-4-[(1R,3aS,3bS,7S,9aR,9bS,11aR)-7-ethyl-7-hydroxy-9a,11a-dimethyl-1H,2H,3H,3aH,3bH,4H,6H,7H,8H,9H,9aH,9bH,10H,11H,11aH-cyclopenta[a]phenanthren-1-yl]pentanoyl]piperazine-1-carboxylate]
- IC50 (SREBP-2): < 0.25 µM
- EC50 (LXRβ): > 10 µM

- IC50 (SREBP-2): < 0.25 µM
- EC50 (LXRβ): > 10 µM
Compound: C[C@H](CCC(=O)N1CC(C)(CO)C1)[C@H]1CC[C@H]2[C@@H]3CC=C4C[C@@H](O)CC[C@]4(C)[C@H]3CC[C@]12C [Example 555, (R)-4-((3S,8S,9S,10R,13R,14S,17R)-3-hydroxy-10,13-dimethyl-2,3,4,7,8,9,10,11,12,13,14,15,16,17-tetradecahydro-1H-cyclopenta[a]phenanthren-17-yl)-1-(3-(hydroxymethyl)-3-methylazetidin-1-yl)pentan-1-one]

Compound: CC(C)OC(=O)N1CCN(C(=O)CC[C@@H](C)[C@H]2CC[C@H]3[C@@H]4CC=C5C[C@@H](O)CC[C@]5(C)[C@H]4CC[C@]23C)[C@@H](C)C1 [Example 589, Isopropyl(S)-4-((R)-4-((3S,8S,9S,10R,13R,14S,17R)-3-hydroxy-10,13-dimethyl-2,3,4,7,8,9,10,11,12,13,14,15,16,17-tetradecahydro-1H-cyclopenta[a]phenanthren-17-yl)pentanoyl)-3-methylpiperazine-1-carboxylate]
- IC50 (SREBP-2): < 0.25 µM
- EC50 (LXRβ): > 10 µM

Compound: CC(=O)N(C)C1CCN(C(=O)CC[C@@H](C)[C@H]2CC[C@H]3[C@@H]4CC=C5C[C@@H](O)CC[C@]5(C)[C@H]4CC[C@]23C)CC1 [Example 319, N-(1-((R)-4-((3S,8S,9S,10R,13R,14S,17R)-3-hydroxy-10,13-dimethyl-2,3,4,7,8,9,10,11,12,13,14,15,16,17-tetradecahydro-1H-cyclopenta[a]phenanthren-17-yl)pentanoyl)piperidin-4-yl)-N-methylacetamide]
- IC50 (SREBP-2): < 0.25 µM
- EC50 (LXRβ): > 10 µM

Compound: C[C@H](CCC(=O)N1CCS(=O)(=O)[C@H](C)C1)[C@H]1CC[C@H]2[C@@H]3CC=C4C[C@@H](O)CC[C@]4(C)[C@H]3CC[C@]12C [Example 356, (2R)-4-[(4R)-4-[(1R,3aS,3bS,7S,9aR,9bS,11aR)-7-hydroxy-9a,11a-dimethyl-1H,2H,3H,3aH,3bH,4H,6H,7H,8H,9H,9aH,9bH,10H,11H,11aH-cyclopenta[a]phenanthren-1-yl]pentanoyl]-2-methyl-1 λ^6-thiomorpholine-1,1-dione]
- IC50 (SREBP-2): < 0.25 µM
- EC50 (LXRβ): > 10 µM
